# Values of other authors in patent publication US20260345609A1, “METHODS FOR PROMOTING PERSISTENCE OF CELL THERAPY” (Legend Biotech Ireland Limited, priority 2022, published 2026).
# Read-outs that look alike come from different tables or passages of the source.
# Settings: cited from earlier work
SMILES,"Half-life (human, in vivo)",Half-life (Short infusion),Half-life (long infusion)
Nc1nc(Cl)nc2c1ncn2[C@H]1C[C@H](O)[C@@H](CO)O1 [Cladribine],10 h,–,–
CN(C)/N=N/c1[nH]cnc1C(N)=O [Dacarbazine],5 h,–,–
COc1cccc2c1C(=O)c1c(O)c3c(c(O)c1C2=O)C[C@@](O)(C(=O)CO)C[C@@H]3O[C@H]1C[C@H](N)[C@H](O)[C@H](C)O1 [Doxorubicin],1 to 3 h,–,–
O=c1[nH]cc(F)c(=O)[nH]1 [Fluorouracil],0.267 h,–,–
Nc1ccn([C@@H]2O[C@H](CO)[C@@H](O)C2(F)F)c(=O)n1 [Gemcitabine],–,Short infusion: 32-94 min;,long infusion: 245-638 min
N[C@@H]1CCCC[C@H]1N.[Pt+2] [Oxaliplatin],0.167 to 0.417 h,–,–
CC(=O)O[C@H]1C(=O)[C@@]2(C)[C@H]([C@H](OC(=O)c3ccccc3)[C@]3(O)C[C@H](OC(=O)[C@H](O)[C@@H](NC(=O)c4ccccc4)c4ccccc4)C(C)=C1C3(C)C)[C@]1(OC(C)=O)CO[C@@H]1C[C@@H]2O [Paclitaxel],5.8 h,–,–
O=P1(N(CCCl)CCCl)NCCCO1 (centres unmarked) [cyclophosphamide],3 to 12 h,–,–
Nc1nc(F)nc2c1ncn2[C@@H]1O[C@H](CO)[C@@H](O)[C@@H]1O [fludarabine],20 h,–,–
CC[C@]1(O)C[C@H]2CN(CCc3c([nH]c4ccccc34)[C@@](C(=O)OC)(c3cc4c(cc3OC)N(C)[C@H]3[C@@](O)(C(=O)OC)[C@H](OC(C)=O)[C@]5(CC)C=CCN6CC[C@]43[C@@H]65)C2)C1 [vinblastine],24.8 h,–,–
